Key:
human pancreatic islets = test: Insulin secretion in perifused human islets; format: cell-based; details: for Effect on glucose- and tolbutamide-stimulated insulin secretion: G16.7 and G16.7+Tolb
Method: The activity of Compound 1 on insulin and glucagon secretion in human pancreatic islets from three healthy adult donors (Prodo Labs, Aliso Viejo, Calif.) was evaluated using a perifusion system that enables dynamic insulin and glucagon measurements from the same islet preparation in response to different stimuli. Specifically, the effects on glucose-stimulated and sulfonylurea (tolbutamide)-stimulated insulin secretion and arginine-stimulated glucagon secretion were investigated and compared to those of a maximally effective concentration of diazoxide. Islets were collected in culture media (Prodo Labs #PIM-S001GMP) supplemented with 5% human AB serum (Prodo Labs #PIM-ABS001GMP), 1% glutamine-glutathione (Prodo Labs #PIM-G001GMP) and an antibiotic cocktail of amphotericin B, ciproflaxin and gentamicin (Prodo Labs #PIM-3X001GMP) and plated at a density of 1500-3000 islet equivalents (IEQ) in 10-cm nontreated tissue culture dishes (Thomas Scientific #1182M59). Islets were cultured at 37° C., 5% CO2 and 95% humidity for 20 h. Dynamic insulin secretion assays were performed using a perifusion system, Peri5 (Biorep Technologies, FL. Glucose (Boston BioProducts #BM-675) at 3 mM (G3) or 16.7 mM (G16.7), or glucose at 16.7 mM plus 100 μM tolbutamide (Sigma #T0891; G16.7+Tolb) were prepared in perifusion buffer, PB=[24 mM NaHCO3 (Fisher Scientific #S233-500), 120 mM NaCl (Spectrum Chemical #S0155), 4.8 mM KCl (Fisher Scientific #P217-500), 2.5 mM CaCl2 (Fisher Scientific #C614-500), 1.2 mM MgCl2 (Sigma #M8266), 10 mM HEPES (Gibco #15630-080) and 0.1% BSA (EMD Millipore #12675-100GM)]. Various concentrations of Compound 1 and diazoxide (Sigma #D9035) were prepared in G16.7 or in G16.7+Tolb. […] Insulin concentration was quantified using the commercially-available Mercodia Insulin ELISA (Mercodia #10-1113-10) kit. […] The optical density of each well was determined at 450 nm in a Tecan M1000Pro (Tecan, Switzerland) multiplate reader. Insulin concentrations were calculated by regression to the standard curve using GraphPad Prism (GraphPad, San Diego, Calif.).

[1] = system: sulfonylurea-induced hyperinsulinism; test: Sulfonylurea (glibenclamide) challenge and euglycemic clamp, SAD; format: in vivo, human; details: single dose 30 mg or 60 mg
Method: SAD 1b/Part 1b: ascending single dose, randomized, placebo-controlled, double-blind; up to 3 cohorts, n=8/cohort; subjects in SAD 1b will undergo an SU challenge and euglycemic clamp procedure. Doses are 30 mg or 60 mg.
In SAD 1b and the MAD, subjects will undergo an SU challenge in the setting of a euglycemic clamp procedure. Sulfonylurea drugs act to close KATP channel of the pancreatic β-cell, stimulating endogenous insulin secretion. Given that the majority (50%) of patients with congenital HI harbor a mutation in the KATP channel, the SU challenge models this genetic form of HI in healthy volunteers. Intravenous glucose will be used during the euglycemic clamp to maintain glucose within a target range. […] The SU challenge cohorts in SAD 1b will assess the ability of a single dose of Compound 1 to reduce or prevent SU-induced glucose lowering as measured by reduced IV glucose infusion (reduced glucose “support”). IV glucose requirements will be assessed as a glucose infusion rate, or GIR (mg dextrose/kg body weight/minute). In the MAD, the durability of the Compound 1 effect will be measured by assessing the GIR required to maintain euglycemia during the SU challenge after 10 days of Compound 1 dosing compared to the baseline SU challenge in the absence (predose) of Compound 1. […]

[2] = MAD study pharmacokinetics; format: in vivo, human
Method: MAD/Part 2: multiple ascending dose, randomized, placebo-controlled, double-blind; up to 5 cohorts, n=9/cohort; subjects in MAD will receive Compound 1 or the placebo. Subjects will undergo a mixed meal tolerance test (MMTT) and an SU challenge and euglycemic clamp procedure. The doses will not exceed the doses in the SAD. Doses will escalate from 30 mg to 120 mg.

C[C@H](NC(=O)c1cnc(C#N)c(-c2cc(F)cc(F)c2)c1N1CC[C@H](N)C1)C(F)(F)F [Compound 1, 4-[(3S)-3-aminopyrrolidin-1-yl]-6-cyano-5-(3,5-difluorophenyl)-N-[(2S)-1,1,1-trifluoropropan-2-yl]pyridine-3-carboxamide]
Effect on glucose- and tolbutamide-stimulated insulin secretion (human pancreatic islets; 0.1 μM): intermediate effect
Effect on glucose- and tolbutamide-stimulated insulin secretion (human pancreatic islets; 1 μM, both phases): strongest inhibitory effect
Insulin secretion in response to 16.7 mM glucose and tolbutamide (human pancreatic islets; concentration dependent, islets from three healthy adult donors): inhibited insulin secretion
Effect on sulfonylurea-induced hyperinsulinism [1]: reversed sulfonylurea-induced hyperinsulinism
Need for IV glucose support (glucose infusion rate) [1]: eliminating the need for IV glucose support
Time to steady state trough levels ([2]; QD dosing): ~8 days
Mean accumulation at steady state for AUC ([2]; QD dosing 30-120 mg): 2-2.5 ×
Mean accumulation at steady state for Cmaz ([2]; QD dosing 30-120 mg): 1.6-1.8 ×
Dose proportionality of exposures ([2]; between 30 and 120 mg doses): Modestly greater than proportional increases in exposures
